Data from ChEMBL document CHEMBL1201862, “PubChem BioAssay data set” (2004).
Activity calls are given as the source filed them.

Tests used:
cells [1] = type: functional, cell-based
cells [2] = type: functional, cell-based; remark: listed apart in the source
[3] = cytotoxicity in HPDE-C7 cells, cell-based, fluorescence, HTS (AID 430); type: functional; settings: Homo sapiens
[4] = microbe, parasite or virus in culture; type: functional; settings: Mycobacterium tuberculosis
[5] = cytotoxicity in KRAS-transformed pancreatic duct cells, primary screen, cell-based, fluorescence, HTS (AID 431); type: functional; settings: Homo sapiens;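 also: cell line used: HPDE-C7K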
[6] = molecular target: Induced myeloid leukemia cell differentiation protein Mcl-1 (Homo sapiens, UniProt Q07820); type: functional
Chain of Induced myeloid leukemia cell differentiation protein Mcl-1 (Q07820 whole entry): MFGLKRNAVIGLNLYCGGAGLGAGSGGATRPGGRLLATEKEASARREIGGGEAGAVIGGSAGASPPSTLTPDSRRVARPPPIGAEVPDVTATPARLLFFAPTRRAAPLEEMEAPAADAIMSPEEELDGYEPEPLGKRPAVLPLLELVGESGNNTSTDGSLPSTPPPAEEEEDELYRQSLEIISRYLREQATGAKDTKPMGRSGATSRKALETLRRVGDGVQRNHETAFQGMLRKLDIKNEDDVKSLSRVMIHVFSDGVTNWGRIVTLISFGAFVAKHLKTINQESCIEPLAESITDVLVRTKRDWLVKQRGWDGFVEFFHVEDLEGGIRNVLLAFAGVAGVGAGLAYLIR

[7] = molecular target: T1, Adenosylmethionine-8-amino-7-oxononanoate aminotransferase (Mycobacterium tuberculosis, UniProt P9WQ81); assay: Mycobacterium tuberculosis BioA enzyme inhibitor Measured in Biochemical System Using Plate Reader - 2163-02_Inhibitor_Dose_CherryPick_Activity.; type: functional, Mycobacterium tuberculosis UT205
T1 sequence (P9WQ81 whole entry): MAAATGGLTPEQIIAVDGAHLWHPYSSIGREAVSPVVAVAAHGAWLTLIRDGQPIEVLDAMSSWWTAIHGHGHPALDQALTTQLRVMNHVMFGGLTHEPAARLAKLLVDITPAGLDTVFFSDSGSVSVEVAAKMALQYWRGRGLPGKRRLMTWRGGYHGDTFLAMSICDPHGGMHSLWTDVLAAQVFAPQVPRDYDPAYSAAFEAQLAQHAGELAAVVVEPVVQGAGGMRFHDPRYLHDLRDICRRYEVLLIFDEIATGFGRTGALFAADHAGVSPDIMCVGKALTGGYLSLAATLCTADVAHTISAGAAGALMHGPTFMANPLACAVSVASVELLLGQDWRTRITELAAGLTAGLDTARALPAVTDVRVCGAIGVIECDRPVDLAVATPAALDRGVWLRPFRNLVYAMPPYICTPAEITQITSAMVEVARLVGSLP

Fatty acid synthase [8] = molecular target: T2, Fatty acid synthase (Homo sapiens, UniProt P49327); assay: FAS thioesterase domain inhibitors, dose response, biochemical, endpoint fluorescence intensity, uHTS hits (AID 624327); type: functional;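 also: fluorescence from hydrolysis of an O-methyl fluorescein acyl ester substrate by the enzyme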
T2 sequence (P49327 whole entry, the tested form may be a part): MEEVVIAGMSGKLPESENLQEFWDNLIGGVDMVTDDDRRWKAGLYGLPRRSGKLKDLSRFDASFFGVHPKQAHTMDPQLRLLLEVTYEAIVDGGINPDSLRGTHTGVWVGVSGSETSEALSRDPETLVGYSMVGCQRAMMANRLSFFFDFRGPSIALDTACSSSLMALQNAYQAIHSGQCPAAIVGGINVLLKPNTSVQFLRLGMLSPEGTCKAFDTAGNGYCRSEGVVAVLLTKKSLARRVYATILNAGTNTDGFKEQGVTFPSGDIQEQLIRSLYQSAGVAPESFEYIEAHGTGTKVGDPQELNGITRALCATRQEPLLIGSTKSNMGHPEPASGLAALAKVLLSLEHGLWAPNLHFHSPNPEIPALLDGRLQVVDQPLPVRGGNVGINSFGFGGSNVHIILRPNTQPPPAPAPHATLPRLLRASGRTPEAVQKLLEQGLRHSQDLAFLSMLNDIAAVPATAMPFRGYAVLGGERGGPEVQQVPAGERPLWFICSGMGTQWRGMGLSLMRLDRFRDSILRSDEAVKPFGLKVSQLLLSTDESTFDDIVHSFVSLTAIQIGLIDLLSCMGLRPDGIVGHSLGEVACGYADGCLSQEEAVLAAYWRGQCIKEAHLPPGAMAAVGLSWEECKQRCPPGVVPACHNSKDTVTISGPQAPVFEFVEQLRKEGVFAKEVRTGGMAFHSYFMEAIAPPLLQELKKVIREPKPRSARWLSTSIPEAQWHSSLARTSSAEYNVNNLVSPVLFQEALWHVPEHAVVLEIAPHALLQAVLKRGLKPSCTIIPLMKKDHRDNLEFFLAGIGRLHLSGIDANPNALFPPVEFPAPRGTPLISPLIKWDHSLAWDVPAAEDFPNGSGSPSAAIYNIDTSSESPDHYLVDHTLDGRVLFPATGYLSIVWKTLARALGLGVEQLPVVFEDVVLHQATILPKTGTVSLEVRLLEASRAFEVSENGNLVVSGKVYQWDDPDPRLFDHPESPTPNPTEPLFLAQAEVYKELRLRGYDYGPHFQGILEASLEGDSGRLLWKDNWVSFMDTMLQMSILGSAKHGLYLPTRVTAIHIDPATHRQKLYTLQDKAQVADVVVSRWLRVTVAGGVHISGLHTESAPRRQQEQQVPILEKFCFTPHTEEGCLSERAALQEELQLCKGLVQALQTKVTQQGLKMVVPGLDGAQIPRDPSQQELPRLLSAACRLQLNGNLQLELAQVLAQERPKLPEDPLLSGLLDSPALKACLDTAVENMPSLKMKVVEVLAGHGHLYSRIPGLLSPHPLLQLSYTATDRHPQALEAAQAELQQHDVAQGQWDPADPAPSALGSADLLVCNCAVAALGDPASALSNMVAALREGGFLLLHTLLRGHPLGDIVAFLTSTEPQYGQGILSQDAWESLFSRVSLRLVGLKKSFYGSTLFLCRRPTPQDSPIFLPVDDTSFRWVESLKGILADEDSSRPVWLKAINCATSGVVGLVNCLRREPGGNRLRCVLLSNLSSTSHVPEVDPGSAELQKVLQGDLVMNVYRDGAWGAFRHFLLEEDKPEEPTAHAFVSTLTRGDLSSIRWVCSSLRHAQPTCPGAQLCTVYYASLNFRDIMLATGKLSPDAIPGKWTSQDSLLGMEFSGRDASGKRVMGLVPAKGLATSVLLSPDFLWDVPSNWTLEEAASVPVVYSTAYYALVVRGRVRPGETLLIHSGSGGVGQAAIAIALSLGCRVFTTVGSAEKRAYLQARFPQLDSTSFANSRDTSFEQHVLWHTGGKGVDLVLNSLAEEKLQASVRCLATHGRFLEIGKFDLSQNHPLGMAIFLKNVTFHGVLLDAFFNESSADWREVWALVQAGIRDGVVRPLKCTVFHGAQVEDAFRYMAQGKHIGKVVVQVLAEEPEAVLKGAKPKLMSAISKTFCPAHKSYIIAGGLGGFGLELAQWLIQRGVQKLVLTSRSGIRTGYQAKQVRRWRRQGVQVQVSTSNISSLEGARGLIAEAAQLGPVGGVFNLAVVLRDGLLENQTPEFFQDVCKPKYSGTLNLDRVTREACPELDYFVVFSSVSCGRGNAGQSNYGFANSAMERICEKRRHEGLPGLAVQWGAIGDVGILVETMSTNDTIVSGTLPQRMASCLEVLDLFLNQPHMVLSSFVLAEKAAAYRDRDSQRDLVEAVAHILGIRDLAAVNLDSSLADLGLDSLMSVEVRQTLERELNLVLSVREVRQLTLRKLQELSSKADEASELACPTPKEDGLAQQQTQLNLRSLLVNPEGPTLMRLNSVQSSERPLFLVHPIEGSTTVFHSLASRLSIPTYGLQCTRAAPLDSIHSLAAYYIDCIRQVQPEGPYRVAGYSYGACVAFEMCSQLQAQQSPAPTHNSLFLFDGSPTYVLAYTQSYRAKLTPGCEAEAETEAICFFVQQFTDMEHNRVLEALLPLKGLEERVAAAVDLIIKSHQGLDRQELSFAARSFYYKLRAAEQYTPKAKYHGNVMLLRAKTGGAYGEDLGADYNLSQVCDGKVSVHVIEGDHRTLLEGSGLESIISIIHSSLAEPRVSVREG

Fatty acid synthase [9] = molecular target: T2, Fatty acid synthase; assay: FAS thioesterase domain inhibitors, dose response, biochemical, kinetic fluorescence intensity (AID 624326); type: functional;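 also: rate of fluorescence rise from hydrolysis of a fluorogenic O-methyl fluorescein ester substrate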
Nonstructural protein 1 = Nonstructural protein 1 (Influenza A virus, UniProt Q194T2); type: functional, Influenza A virus (A/California/07/2009(H1N1))
Chain of Nonstructural protein 1 (Q194T2 whole entry): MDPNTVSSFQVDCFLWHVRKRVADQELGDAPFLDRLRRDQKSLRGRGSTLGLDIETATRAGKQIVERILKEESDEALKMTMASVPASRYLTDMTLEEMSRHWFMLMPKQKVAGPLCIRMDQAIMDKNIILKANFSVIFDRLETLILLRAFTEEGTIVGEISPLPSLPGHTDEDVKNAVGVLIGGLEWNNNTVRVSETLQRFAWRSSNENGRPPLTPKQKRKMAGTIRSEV

[10] = molecular target: T3, Heat shock factor protein 1 (Mus musculus, UniProt P38532); assay: inhibition of MG132-induced HSE-luciferase signal, confirmation, cell-based, NIH3T3, luminescence, dose retest (AID 2382); type: functional;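 also: NIH3T3 fibroblasts with HSF1-driven luciferase reporter stressed by proteasome inhibitor MG132; luminescence from HSF1-driven luciferase expression after 8 hours of MG132 stress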
T3 sequence (P38532 whole entry): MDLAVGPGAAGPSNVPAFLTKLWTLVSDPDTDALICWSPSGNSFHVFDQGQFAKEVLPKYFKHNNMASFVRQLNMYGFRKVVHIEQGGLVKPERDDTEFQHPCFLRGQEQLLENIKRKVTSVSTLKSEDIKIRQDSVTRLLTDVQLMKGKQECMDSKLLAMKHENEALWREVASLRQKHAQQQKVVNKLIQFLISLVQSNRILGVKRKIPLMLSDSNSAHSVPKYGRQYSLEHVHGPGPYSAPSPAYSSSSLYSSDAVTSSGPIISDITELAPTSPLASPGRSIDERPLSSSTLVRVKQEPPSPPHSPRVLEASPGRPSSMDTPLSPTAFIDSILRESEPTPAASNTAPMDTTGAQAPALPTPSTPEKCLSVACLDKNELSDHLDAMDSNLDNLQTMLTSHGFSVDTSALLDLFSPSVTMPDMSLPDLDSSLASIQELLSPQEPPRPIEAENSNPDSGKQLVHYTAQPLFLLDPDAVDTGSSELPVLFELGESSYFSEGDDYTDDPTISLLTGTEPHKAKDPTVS

[11] = molecular target: T4, Replicative DNA helicase DnaB (Mycobacterium tuberculosis, UniProt P9WMR3); assay: DnaB intein splicing inhibitors, dose response, biochemical, cell-free fluorescence (AID 449749); type: functional
T4 sequence (P9WMR3 whole entry): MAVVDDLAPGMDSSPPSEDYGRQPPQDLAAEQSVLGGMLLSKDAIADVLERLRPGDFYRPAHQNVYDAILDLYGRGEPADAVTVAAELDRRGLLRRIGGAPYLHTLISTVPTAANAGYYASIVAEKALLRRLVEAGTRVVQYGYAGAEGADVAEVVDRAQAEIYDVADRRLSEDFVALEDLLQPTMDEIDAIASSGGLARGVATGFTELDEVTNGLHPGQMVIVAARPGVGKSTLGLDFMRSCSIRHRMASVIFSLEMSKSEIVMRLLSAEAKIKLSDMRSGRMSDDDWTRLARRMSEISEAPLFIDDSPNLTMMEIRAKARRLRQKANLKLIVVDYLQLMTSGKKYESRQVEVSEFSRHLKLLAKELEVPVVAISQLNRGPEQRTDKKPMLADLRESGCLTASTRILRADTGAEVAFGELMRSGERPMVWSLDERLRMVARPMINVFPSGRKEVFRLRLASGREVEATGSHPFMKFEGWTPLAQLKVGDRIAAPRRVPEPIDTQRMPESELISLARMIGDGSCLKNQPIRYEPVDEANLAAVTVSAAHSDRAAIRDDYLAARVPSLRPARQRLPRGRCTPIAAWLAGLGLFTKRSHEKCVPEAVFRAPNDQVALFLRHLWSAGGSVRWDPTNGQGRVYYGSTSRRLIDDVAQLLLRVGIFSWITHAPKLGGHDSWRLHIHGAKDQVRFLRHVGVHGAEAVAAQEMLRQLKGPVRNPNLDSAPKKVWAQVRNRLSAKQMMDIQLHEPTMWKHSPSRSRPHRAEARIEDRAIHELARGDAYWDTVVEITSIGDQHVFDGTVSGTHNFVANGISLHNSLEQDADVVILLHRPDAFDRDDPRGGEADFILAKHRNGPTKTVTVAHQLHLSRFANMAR

[12] = C. albicans growth with fluconazole, confirmation, fluorescence, retest (AID 2467); type: functional, cell-based
Protein RecA = molecular target: T5, Protein RecA (Mycobacterium tuberculosis, UniProt P9WHJ3); assay: Fluorescence Cell-Free Homogeneous Dose Retest to Identify Inhibitors of RecA-Intein Splicing Activity. [Related pubchem assays (depositor defined):AID2097, AID2223, AID489010, AID492950]; type: functional
T5 sequence (P9WHJ3 whole entry): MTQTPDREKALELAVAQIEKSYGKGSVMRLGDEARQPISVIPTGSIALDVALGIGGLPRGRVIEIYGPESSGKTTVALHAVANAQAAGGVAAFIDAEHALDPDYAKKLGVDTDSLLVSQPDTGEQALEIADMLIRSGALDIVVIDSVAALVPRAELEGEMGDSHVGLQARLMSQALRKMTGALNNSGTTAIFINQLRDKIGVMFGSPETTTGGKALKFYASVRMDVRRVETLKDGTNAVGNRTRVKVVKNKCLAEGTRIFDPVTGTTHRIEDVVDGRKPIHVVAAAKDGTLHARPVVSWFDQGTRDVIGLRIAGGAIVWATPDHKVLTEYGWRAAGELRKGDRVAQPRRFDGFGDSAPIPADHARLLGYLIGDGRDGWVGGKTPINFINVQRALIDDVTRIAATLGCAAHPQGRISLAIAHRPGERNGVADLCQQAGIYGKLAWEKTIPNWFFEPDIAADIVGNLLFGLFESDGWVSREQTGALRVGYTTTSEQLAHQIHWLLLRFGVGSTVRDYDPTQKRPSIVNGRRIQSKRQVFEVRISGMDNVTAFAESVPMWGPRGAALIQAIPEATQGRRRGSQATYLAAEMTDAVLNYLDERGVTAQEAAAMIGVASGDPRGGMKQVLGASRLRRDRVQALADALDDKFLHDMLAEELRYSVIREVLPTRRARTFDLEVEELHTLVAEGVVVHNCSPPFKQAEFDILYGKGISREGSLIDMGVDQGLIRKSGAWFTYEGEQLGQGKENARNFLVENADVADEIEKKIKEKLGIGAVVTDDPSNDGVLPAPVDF

HEK293 = assay: inhibitors of LMP1-driven NF-kB reporter, dose response, cell-based, HEK293, luciferase, cherry-pick (AID 588343); type: functional; settings: Homo sapiens
[13] = NIH-3T3 fibroblast cytotoxicity, dose response, cytotoxicity control, cell-based, fluorescence, Alamar Blue, secondary assay (AID 2327); type: functional;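 also: NIH-3T3 mouse fibroblasts cultured with fluconazole at 8 µg/mL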
[14] = inhibitors of intracellular T. cruzi replication, confirmation, NIH3T3 host cells, beta-gal luminescence (AID 2044); type: functional, cell-based;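 also: intracellular parasites grown in NIH/3T3 mouse fibroblasts as host cells; luminescent beta-galactosidase reporter signal from transgenic T. cruzi replicating inside host cells; inhibitors lower the luminescence signal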
[15] = cytotoxicity toward NIH3T3 fibroblasts, dose response, counter-screen, cell-based, ATP luminescence, mouse fibroblasts (AID 2010); type: functional;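 also: cells exposed to compound for about 90 hours before reading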
cells [16] = assay: cells
[17] = molecular target: T6, Oxysterols receptor LXR-beta (Homo sapiens, UniProt P55055); type: functional, cell-based;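 also: Cell-based luminescence dose-response assay of agonist activity at LXR, run as a confirmatory counterscreen to a daf-12 agonist screen; HEK293 cells with Gal4-LXR fusion and GAL4-driven luciferase reporter; agonist potency from rising luciferase signal of a Gal4-LXR reporter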
T6 sequence (P55055 whole entry): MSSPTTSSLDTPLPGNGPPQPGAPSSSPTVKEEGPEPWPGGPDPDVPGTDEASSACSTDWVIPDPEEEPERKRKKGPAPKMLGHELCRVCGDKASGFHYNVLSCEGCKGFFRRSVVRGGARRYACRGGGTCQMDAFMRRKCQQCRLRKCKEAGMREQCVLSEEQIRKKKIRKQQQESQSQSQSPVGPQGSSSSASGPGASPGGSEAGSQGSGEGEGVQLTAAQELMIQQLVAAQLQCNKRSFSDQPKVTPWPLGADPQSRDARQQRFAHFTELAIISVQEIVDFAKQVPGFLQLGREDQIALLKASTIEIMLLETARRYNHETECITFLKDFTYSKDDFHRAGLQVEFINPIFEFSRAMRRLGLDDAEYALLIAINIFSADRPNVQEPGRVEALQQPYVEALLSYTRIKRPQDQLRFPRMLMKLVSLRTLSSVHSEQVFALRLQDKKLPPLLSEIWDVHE

[18] = growth suppression of PTEN-null colon cells, dose response, cell-based, HCT116 PTEN knockout (AID 1047); type: functional;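 also: HCT116 colon tumor cells with PTEN knocked out; cells exposed to compound for 60 hours before readout; potency for loss of cell viability measured by luminescence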
[19] = growth suppression of beta-catenin-knockout colon cells, dose response, cell-based, HCT116, human colon tumor (AID 1045); type: functional;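 also: HCT116 colon tumor cells with beta catenin knocked out; cells exposed to compound for 60 hours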
CAAX prenyl protease 2 = molecular target: T7, CAAX prenyl protease 2 (Saccharomyces cerevisiae S288c, UniProt Q03530); type: biochemical
T7 sequence (Q03530 whole entry): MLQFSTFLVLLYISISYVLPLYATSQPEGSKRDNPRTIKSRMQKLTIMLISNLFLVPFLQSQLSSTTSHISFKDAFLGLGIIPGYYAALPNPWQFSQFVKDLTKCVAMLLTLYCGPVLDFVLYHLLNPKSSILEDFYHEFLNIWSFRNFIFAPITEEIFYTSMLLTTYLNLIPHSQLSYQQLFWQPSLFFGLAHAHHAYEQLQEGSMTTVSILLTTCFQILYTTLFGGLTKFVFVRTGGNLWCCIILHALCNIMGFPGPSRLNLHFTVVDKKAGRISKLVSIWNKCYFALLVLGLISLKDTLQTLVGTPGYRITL

With COc1ccc(C2CC(c3cccs3)=NN2C(=O)CSc2nc(=O)n3cc(C)ccc3n2)cc1 (stereo unspecified) the EC50 (cells [1]) was > 350 µM (not active) and the EC50 (cells [2]) was > 350 µM (not active).

In the case of Oc1ccccc1NCC(O)Cn1ccc2ccccc21 (stereo unspecified), the EC50 [3] is reported as 12.8 µM (active), the CC50 [4] is reported as > 40 µM (active) and the EC50 [5] is reported as 13.2 µM (active). For the same molecule, the IC50 [6] was 4.49 µM (active).

For Cc1ccc(-c2nnc(N3CCN(C(=O)CSc4nc[nH]n4)CC3)c3ccccc23)cc1, the AC50 [7] was 1.07 µM (active).

With COc1cc(/C=N/NC(=O)c2cncc(Br)c2)cc([N+](=O)[O-])c1O the IC50 (Fatty acid synthase [8]) was 18.7 µM (active), the IC50 (Fatty acid synthase [9]) was 9.66 µM (active) and the IC50 (Nonstructural protein 1) was 4.26 µM (active). The EC50 [10] was 0.977 µM (active).

With COc1cccc(/C=N/NC(=O)CNC(=O)C(c2ccccc2)c2ccccc2)c1O the EC50 (cells [1]) was > 350 µM (not active) and the EC50 (cells [2]) was 30.6 µM (active).

For N=C(NOC(=O)c1cccs1)c1ccc(Cl)cc1, the EC50 (cells [1]) was 7.41 µM (active) and the EC50 (cells [2]) was > 350 µM (not active).

With CCN(CC)c1ccc(/C=N/Nc2nc(C)cc(O)n2)c(O)c1 the EC50 (cells [1]) was > 350 µM (not active), the AC50 [11] was > 380 µM (inactive) and the EC50 [12] was 1.09 µM (active). For the same molecule, the EC50 (cells [2]) was 6.92 µM (active), the EC50 (Protein RecA) was 28 µM (active) and the AC50 (HEK293) was 1.75 µM (active). The EC50 [13] was 3.13 µM (active).

With Cc1cccc(-c2cc3c(N=O)c4ccccc4c-3[nH]n2)c1 the EC50 [14] was 4.86 µM (active), the EC50 [15] was > 60 µM (not active) and the EC50 (cells [16]) was > 67.5 µM (inactive). The EC50 [17] was > 67.5 µM (inactive).

In the case of Cc1cc2oc3c(c(=O)c2cc1C)C(c1cccc(Br)c1)N(Cc1ccco1)C3=O (stereo unspecified), the EC50 [3] is reported as > 20 µM (not active), the EC50 [18] is reported as 9.43 µM (active) and the EC50 [5] is reported as > 20 µM (not active). For the same molecule, the EC50 [19] was 8.39 µM (active).

In the case of COc1ccc2oc(C(=O)Nc3ccccn3)c(C)c2c1, the EC50 (cells [16]) is reported as > 67.5 µM (inactive) and the EC50 [17] is reported as > 67.5 µM (inactive).

In the case of CC(Oc1ccc2ccc(=O)oc2c1)C(=O)N1CCOCC1 (stereo unspecified), the AC50 [7] is reported as 6.85 µM (active).

For CCOc1ccc(-c2c(C(=O)N/N=C/c3cccs3)nnn2-c2nonc2N)cc1, the AC50 (CAAX prenyl protease 2) was 5.5 µM (active).

With NC(=S)n1nc(-c2ccc([N+](=O)[O-])cc2)c(/N=N/c2ccc(Cl)cc2)c1O the IC50 (Fatty acid synthase [8]) was 17.5 µM (active), the IC50 (Fatty acid synthase [9]) was 9.27 µM (active) and the IC50 [6] was > 54 µM (active).

With O=C(c1ccccc1F)N1CC[C@@H]2[C@H](CO)Nc3ccc(Br)cc3[C@@H]21 the AC50 [7] was 1.81 µM (active).

For Cc1ccc(Cc2c(C)nc3nc(SCC(=O)NCCCN4CCCCC4)nn3c2C)cc1, the AC50 [7] was 11.1 µM (active).

In the case of COc1ccc(N=C(S)Nc2ccccn2)c(OC)c1, the EC50 (cells [1]) is reported as 53.6 µM (active) and the EC50 (cells [2]) is reported as > 350 µM (not active).
